Reference: ChEMBL document CHEMBL1157539, “Thousands of chemical starting points for antimalarial lead identification” (Nature, 2010)

Test system: Plasmodium falciparum
Assay: GSK_TCMDC: Inhibition of Plasmodium falciparum 3D7 in whole erythrocytes, using parasite LDH activity as an index of growth.
Type: functional, organism-based
Conditions: Plasmodium falciparum, 3D7

SMILES	XC50 [µM]
COc1ccc(NC(=O)CCNc2ccnc(NCCc3ccc(F)cc3)n2)cc1	0.99
Cc1cc(NC(=O)CCCN2CCN(c3cccc(Cl)c3Cl)CC2)ccc1N1CCN(C(C)C)CC1	0.757
CC(C)C(C(=O)n1ncc2c3c(N)nc(N)nc3ccc21)C(C)C	0.648
COc1cc(NC(=O)C(c2ccc(Cl)cc2)C(C)C)cc(OC)c1OC (configuration not stated)	0.534
N#Cc1ccc(-c2ccc(C(=O)Nc3ccc4c(c3)CCN(C3CCC3)CC4)nc2)cc1	0.696
O=C(NCc1cccc(C(F)(F)F)c1)C(c1cc2ccccc2o1)N1CCN(C(c2ccccc2)c2ccccc2)CC1 (configuration not stated)	0.498
Cc1ccc(NC(=O)Cc2noc(CC3CCCN3C(=O)N[C@@H](C)c3ccccc3)n2)cc1 (some centres not stated)	0.369
COc1cc2nc(N3CCC(CNC(=O)c4ccc(C(C)=O)cc4)CC3)nc(N)c2cc1OC	1.12
O=C(Nc1cccc(-c2cccc(-c3nc4ccccc4[nH]3)c2)c1)Nc1ccc2c(c1)OCO2	0.167
CCOC(=O)CC[C@@H](NC(=O)c1ccc(NCc2ccc3ccc4nc(C)[nH]c(=O)c4c3c2)cc1F)C(=O)N[C@@H](Cc1c[nH]c2ccccc12)C(=O)OCC	1.03
Cc1cccc2c(C(=O)NC3CCN(Cc4ccccc4)CC3)cc(-c3cccnc3)nc12	1.38
O=[N+]([O-])c1ccc(Oc2c(Cl)cc(S(=O)(=O)N3CCC(CN4CCC(c5c[nH]c6ccccc56)CC4)CC3)cc2Cl)c(Cl)c1	0.998
O=C(NCCCCN1CCC(c2ccc3c(c2OCC(O)c2ccc(Cl)cc2)CCCC3)CC1)c1ccc(-c2ccc(C(F)(F)F)cc2)cc1 (configuration not stated)	1.04
CC(C)C1C(O)=C(c2ccc3ccccc3c2)C(=O)N1Cc1ccsc1 (configuration not stated)	1.07
Cc1ccc(-c2nnc3c4ccccc4c(C)nn23)cc1S(=O)(=O)N1CCN(CCO)CC1	0.669
CCc1cc2c(=O)c(-c3nc(C)cs3)c([C@H](N)Cc3ccc(O)cc3)oc2cc1O	0.902
Clc1ccc(-c2cnc3ccc(NCCc4cccnc4)nn23)cc1	0.857
COc1ccc(CNC2CCN(C)CC2)cc1-c1ccc(S(=O)(=O)NCc2ccccc2)cc1	0.604
C=Cc1cc(NC(=O)N2CCc3cc(OC)c(C(F)(F)F)cc32)cc(-c2cccnc2)c1	0.702
O=[N+]([O-])c1ccc2ncnc(Nc3ccc(F)c(Cl)c3)c2c1	0.709
CC1CCc2sc(-c3nnc(SC(C)C(=O)NC4CC4)o3)cc2C1 (configuration not stated)	1.21
COc1cc2c(cc1OC)C(C)(C)CN1Cc3c(c(CO)c(OC)c(OC)c3OC)CC21 (configuration not stated)	0.782
O=C(/C=C/c1ccc(Cl)c(Cl)c1)NCCCCCN1CCCC(CNC(=O)Nc2ccc(Oc3ccccc3)cc2)C1 (configuration not stated)	0.783

SMILES	XC50 [µM]
N#CC(c1cccc(Cl)c1)c1ccc2c(C(F)(F)F)cc(C(F)(F)F)nc2n1 (configuration not stated)	0.727
CCn1c(SCc2ccc(F)cc2)nc2sc3c(c2c1=O)CCN(C)C3	0.254
COc1cccc(CNC[C@@H](O)[C@H](Cc2ccccc2)NC(=O)c2cc(C(C)C)cc(N3CCCC3=O)c2)c1	0.953
CC[C@H]1CN2CC[C@H]1C[C@H]2[C@H](OC(=O)c1ccccc1)c1cc(C#N)nc2ccc(OC)cc12	0.915
CNCCNCc1cccc(-c2ccc(-c3nc4cccc(C)c4[nH]3)s2)c1	0.953
CC(=O)Nc1ccc(OCCN(Cc2ccccc2C(F)(F)F)c2ccc(C#N)c(C(F)(F)F)c2)c(Cl)c1	0.619
COC(=O)c1cccc(CNCc2cccc(-c3ccc(-c4nc5cccc(C)c5[nH]4)s3)c2)c1	0.211
Cc1cc(C(=O)Nc2ccc3c(c2)CCN3C2CCN(Cc3ccc4nsnc4c3)C2)no1 (configuration not stated)	0.641
O=C(Nc1cccc(-c2cccc(F)c2)c1)C1CCN(Cc2ccc(O)cc2)CC1	1.73
O=C(/C=C/c1ccc(Cl)c(Cl)c1)NCCCCCN1CCC(NC(=S)Nc2cccc(Cl)c2)CC1	0.873
O=C(Nc1ccc(Br)cc1)Nc1ccc(Cn2ncc(N3CCCNCC3)c(Cl)c2=O)cc1	1.14
Cc1ccc(CN2CCN(CC(O)COc3ccc4c(c3)CCC4)CC2)cc1 (configuration not stated)	0.863
O=C(/C=C/c1cc(C(F)(F)F)ccc1F)NC1CCC(CN2CCC(c3c[nH]c4ccccc34)CC2)CC1 (configuration not stated)	0.818
COc1ccc2nccc([C@@H](O)CN3CCC(NC(=O)/C=C/c4ccc(F)c5ccccc45)CC3)c2c1	0.184
CC[C@H]1CN2CC[C@@H]1C[C@H]2[C@H](O)c1cc(N2CCC(O)(c3ccc(Cl)cc3)CC2)nc2ccc(OC)cc12	0.071
Fc1ccc(-c2cncc(Nc3ccncc3)n2)cc1	1.32
CC(C)(C)c1ccc(CNC(=O)/C=C/c2ccc(CNC3CCNCC3)cc2)cc1	1.09
COCCNCc1ccc(-c2cccc(CNC3CCN(Cc4ccccc4)CC3)c2)cc1	0.333
Cc1cccc2nc(-c3ccc(-c4cccc(NC(=O)Nc5ccsc5)c4)cc3)[nH]c12	0.799
Cc1ccc(Nc2nc(NN=Cc3ccc(-c4ccc([N+](=O)[O-])cc4)o3)nc(N3CCOCC3)n2)cc1Cl	0.652
O=C(N[C@@H](CC1CCCCC1)C(=O)NCCN1CCCCC1)c1ccc(O)c(-c2ccc(Cl)c(Cl)c2)c1	0.148
COc1cc(C)c(NC(=O)c2cccc3c(=O)c(C)c(-c4ccccc4)oc23)cc1OC	1.63
CC(C)c1ccc(NC(=O)c2ccc(CN3CCCN(Cc4cccc(O)c4)CC3)cc2)cc1	0.679

SMILES	XC50 [µM]
COCCNCc1cccc(-c2ccc3nccc(Nc4cc(O)ccc4C)c3c2)c1	0.749
O=C1OC(c2ccccc2)(c2ccccc2)CN1CC1CCN(Cc2ccc(O)c(Cl)c2)CC1	0.818
CC(C)(CNC(=O)[C@H]1CCCCN1)c1nc(-c2ccc(Cl)c(O)c2)c(-c2ccncc2)[nH]1	0.727
CC1(C)N=C(N)N=C(N)N1O	0.192
CCN(CC)/C(=N/C(=N)Nc1ccc(C)cc1)NCCCCCCN/C(=N\C(=N)Nc1ccc(C)cc1)N(CC)CC	0.539
O=C(N1CCN(c2cccc(C(F)(F)F)c2)CC1)C(Cl)(Cl)Cl	0.887
Cc1cc2c(cc1C(F)(F)F)N(C(=O)Nc1ccc(C(=O)NC3CCN(Cc4ccccc4)C3)cc1)CC2 (configuration not stated)	0.775
COc1cc(C(C)C)ccc1C1CCN(CCCCNC(=O)c2ccc(NC(=O)c3ccc(Cl)cc3)cc2)CC1	0.449
COc1cc2nc(N(C)Cc3cc4c(Cl)cccc4s3)nc(N)c2cc1OC	0.953
COCC(=O)Nc1nc2ccccc2[nH]1	0.301
O=C(Nc1cccc(-c2ccc(-c3nc4ccccc4[nH]3)cc2)c1)c1csnn1	1.07
c1cc(CNCCc2ccncc2)cc(-c2ccc(-c3nc4ccccc4[nH]3)s2)c1	0.336
CC(C)(C)c1ccc(OC(=O)c2ccc(NC(=O)N[C@@H](Cc3ccc(O)cc3)C(=O)NC3CCN(Cc4ccc(O)cc4)C3)cc2)cc1 (some centres not stated)	0.814
O=C(Nc1ccc(Cl)cc1)Nc1cccc(CCNCc2ccccc2)c1	0.728
O=C(Nc1cccc(-c2cccc(-c3nc4cc(C(F)(F)F)ccc4[nH]3)c2)c1)c1ccncc1	0.201
COc1ccc(N2C(=O)c3c(c4ccccc4n3C)C2c2ccccc2O)cc1 (configuration not stated)	0.117
CN1CCN(c2nc(NCCNc3ccc([N+](=O)[O-])cc3)c3ccccc3n2)CC1	1.32
Cc1cccc(Nc2nc(N[C@@H]3CCCNC3)nc3cc[nH]c(=O)c23)c1	0.683
O=C(Nc1ccc(Cl)cc1Cl)NC1CCN(CCCCCNC(=O)C2CC2c2ccc(Cl)c(Cl)c2)CC1 (configuration not stated)	0.367
CC(=O)Nc1ccc(CN(C)C2CCN(c3cc(NC(=O)c4cccc(C)c4)ccn3)CC2)cc1	0.904
Cc1cccc(Nc2nccc(NCC(O)c3ccc(C(F)(F)F)cc3)n2)c1 (configuration not stated)	0.555
